# Reference: US12698474B2, “B-cell cultivation method” (priority 2017, dated 2026)
# System: (single deposited) (rabbit) B-cells
# Experiment: Co-cultivation of single deposited B-cells with EL-4 B5 feeder cells, quantification of IgG in supernatant by ELISA
# Type: cell-based
# Protocol: Generally, the 96-well multi well plate in which the co-cultivation was performed was centrifuged after seven days of co-cultivation at 300×g for 5 min. 150 μl supernatant was removed and diluted at a ratio of 2:1 with PBS in a second 96-well multi well plate. The antibody was used at a concentration of 50 ng/ml. If the OD was or exceeded 1 after an incubation time of 5 min. a dilution series of from 0.8 to 108 ng/ml IgG was tested.
# Specifically, a mixture of 0.5 μg/ml of biotinylated mouse anti-rabbit IgG antibody (Sigma-Aldrich) and 0.35 μg/ml anti-rabbit IgG HRP conjugate (Sigma-Aldrich) was transferred to 384 well streptavidin coated microtiter plates (MicroCoat Biotechnologie GmbH). Dilutions of B-cell supernatants in PBS supplemented with 0.5% BSA and 0.05% Tween®-20 were added and incubated for 90 min at RT. After repeated washing (6×) with PBST (phosphate buffered saline with 0.2% Tween®-20) buffer the plates were developed with BM Blue® HRP substrate solution and color formation was measured by absorbance at 370 nm. A commercial rabbit IgG (Sigma-Aldrich) was used as a calibration standard.
# Single cell sorted B-cells were cultured in 96-well plates with 200 μl/well EL-4 B5 medium with Pansorbin Cells (SAC) (Calbiochem (Merck), Darmstadt, Deutschland), EL-4 B5 cells (5×10^4/well) and rabbit thymocyte supernatant (TSN) or cytokine mix (CM) with PMA, respectively, for 7 days at 37° C. in an atmosphere of 5% CO2 in the incubator. B-cell culture supernatants were removed for screening and the cells harvested immediately for variable region gene cloning or frozen at −80° C. in 100 μl RLT buffer (Qiagen, Hilden, Germany).
# [1] = PMA alone, in the absence of cytokines and interleukins
structure (smiles),measurement,setting,value
"CCCCCCCCCCCCCC(=O)O[C@@H]1[C@@H](C)[C@@]2(O)[C@@H](C=C(CO)C[C@]3(O)C(=O)C(C)=C[C@@H]23)[C@@H]2C(C)(C)[C@]12OC(C)=O [PMA, (1aR,1bS,4aR,7aS,7bS,8R,9R,9aS)-9a-(acetyloxy)-4a,7b-dihydroxy-3-(hydroxymethyl)-1,1,6,8-tetramethyl-5-oxo-1a,1b,4,4a,5,7a,7b,8,9,9a-decahydro-H-cyclopropa[3,4]benzo[1,2-e]azulen-9-yl myristate]",IgG+ wells [% total],"PMA 0.002 ng/ml, 0.1×CM",+
same,IgG+ wells [% total],"PMA 0.011 ng/ml, 0.1×CM",+
same,productivity IgG+ [μg/ml],"PMA 0.011 ng/ml, 0.1×CM",+
same,IgG+ wells [% total],"PMA 0.054 ng/ml, 0.1×CM",++++
same,productivity IgG+ [μg/ml],"PMA 0.054 ng/ml, 0.1×CM",+++
same,Average IgG productivity,"PMA 0.095 ng/ml, CM 1x",1.390 µg/mL
same,Number of IgG positive wells [% of total],"PMA 0.095 ng/ml, CM 1x",38.1 % of total
same,productivity IgG+ [μg/ml],"PMA 0.127 ng/ml, 0.032×CM",+
same,IgG+ wells [% total],"PMA 0.127 ng/ml, 0.1×CM",++
same,productivity IgG+ [μg/ml],"PMA 0.127 ng/ml, 0.1×CM",++++
same,IgG+ wells [% total],"PMA 0.225 ng/ml, 0.1×CM",+++++
same,productivity IgG+ [μg/ml],"PMA 0.225 ng/ml, 0.1×CM",+++++
same,IgG+ wells [% total],"PMA 0.3 ng/ml, 0.032×CM",++++
same,productivity IgG+ [μg/ml],"PMA 0.3 ng/ml, 0.032×CM",+++
same,IgG+ wells [% total],"PMA 0.3 ng/ml, 0.1×CM",+++++
same,productivity IgG+ [μg/ml],"PMA 0.3 ng/ml, 0.1×CM",+++++
same,Average IgG productivity,"PMA 0.3 ng/ml, CM 0.01x",1.931 µg/mL
same,Number of IgG positive wells [% of total],"PMA 0.3 ng/ml, CM 0.01x",69.0 % of total
same,Average IgG productivity,"PMA 0.3 ng/ml, CM 0.032x",3.476 µg/mL
same,Number of IgG positive wells [% of total],"PMA 0.3 ng/ml, CM 0.032x",70.2 % of total
same,Average IgG productivity,"PMA 0.3 ng/ml, CM 0.1x",4.450 µg/mL
same,Number of IgG positive wells [% of total],"PMA 0.3 ng/ml, CM 0.1x",67.9 % of total
same,Average IgG productivity,"PMA 0.3 ng/ml, CM 0.32x",2.662 µg/mL
same,Number of IgG positive wells [% of total],"PMA 0.3 ng/ml, CM 0.32x",57.1 % of total
same,Average IgG productivity,"PMA 0.3 ng/ml, CM 1x",0.720 µg/mL
same,Number of IgG positive wells [% of total],"PMA 0.3 ng/ml, CM 1x",17.9 % of total
same,IgG+ wells [% total],"PMA 0.534 ng/ml, 0.032×CM",++
same,productivity IgG+ [μg/ml],"PMA 0.534 ng/ml, 0.032×CM",+++
same,IgG+ wells [% total],"PMA 0.534 ng/ml, 0.1×CM",+++++
same,productivity IgG+ [μg/ml],"PMA 0.534 ng/ml, 0.1×CM",+++
same,IgG+ wells [% total],"PMA 0.712 ng/ml, 0.032×CM",++
same,productivity IgG+ [μg/ml],"PMA 0.712 ng/ml, 0.032×CM",+++
same,IgG+ wells [% total],"PMA 0.712 ng/ml, 0.1×CM",+++
same,productivity IgG+ [μg/ml],"PMA 0.712 ng/ml, 0.1×CM",++
same,IgG+ wells [% total],"PMA 0.949 ng/ml, 0.032×CM",++++
same,productivity IgG+ [μg/ml],"PMA 0.949 ng/ml, 0.032×CM",+++++
same,Average IgG productivity,"PMA 0.95 ng/ml, CM 0x",1.650 µg/mL
same,Number of IgG positive wells [% of total],"PMA 0.95 ng/ml, CM 0x",28.6 % of total
same,Average IgG productivity,"PMA 0.95 ng/ml, CM 0.01x",4.235 µg/mL
same,Number of IgG positive wells [% of total],"PMA 0.95 ng/ml, CM 0.01x",69.0 % of total
same,Average IgG productivity,"PMA 0.95 ng/ml, CM 0.032x",5.340 µg/mL
same,Number of IgG positive wells [% of total],"PMA 0.95 ng/ml, CM 0.032x",67.9 % of total
same,Average IgG productivity,"PMA 0.95 ng/ml, CM 0.1x",1.623 µg/mL
same,Number of IgG positive wells [% of total],"PMA 0.95 ng/ml, CM 0.1x",50.0 % of total
same,Average IgG productivity,"PMA 0.95 ng/ml, CM 0.32x",0.134 µg/mL
same,Number of IgG positive wells [% of total],"PMA 0.95 ng/ml, CM 0.32x",23.8 % of total
same,Average IgG productivity,"PMA 0.95 ng/ml, CM 1x",0.100 µg/mL
same,Number of IgG positive wells [% of total],"PMA 0.95 ng/ml, CM 1x",8.3 % of total
same,IgG+ wells [% total],"PMA 0.95 ng/ml, without CM",+
same,productivity IgG+ [μg/ml],"PMA 0.95 ng/ml, without CM",+
same,IgG+ wells [% total],"PMA 1.266 ng/ml, 0.032×CM",+++
same,productivity IgG+ [μg/ml],"PMA 1.266 ng/ml, 0.032×CM",+++++
same,IgG+ wells [% total],"PMA 1.688 ng/ml, 0.032×CM",+++++
same,productivity IgG+ [μg/ml],"PMA 1.688 ng/ml, 0.032×CM",+++++
same,IgG+ wells [% total],"PMA 1.688 ng/ml, without CM",++
same,productivity IgG+ [μg/ml],"PMA 1.688 ng/ml, without CM",+++
same,IgG+ wells [% total],"PMA 2.25 ng/ml, 0.032×CM",++++
same,productivity IgG+ [μg/ml],"PMA 2.25 ng/ml, 0.032×CM",++++
same,IgG+ wells [% total],"PMA 2.251 ng/ml, without CM",+++++
same,productivity IgG+ [μg/ml],"PMA 2.251 ng/ml, without CM",+++++
same,Average IgG productivity,"PMA 3 ng/ml, CM 0.01x",3.893 µg/mL
same,Number of IgG positive wells [% of total],"PMA 3 ng/ml, CM 0.01x",69.0 % of total
same,Average IgG productivity,"PMA 3 ng/ml, CM 0.032x",3.480 µg/mL
same,Number of IgG positive wells [% of total],"PMA 3 ng/ml, CM 0.032x",72.6 % of total
same,Average IgG productivity,"PMA 3 ng/ml, CM 0.1x",0.363 µg/mL
same,Number of IgG positive wells [% of total],"PMA 3 ng/ml, CM 0.1x",35.7 % of total
same,Average IgG productivity,"PMA 3 ng/ml, CM 0.32x",0.125 µg/mL
same,Number of IgG positive wells [% of total],"PMA 3 ng/ml, CM 0.32x",13.1 % of total
same,Average IgG productivity,"PMA 3 ng/ml, CM 1x",0.351 µg/mL
same,Number of IgG positive wells [% of total],"PMA 3 ng/ml, CM 1x",13.1 % of total
same,IgG+ wells [% total],"PMA 3.999 ng/ml, without CM",+++
same,productivity IgG+ [μg/ml],"PMA 3.999 ng/ml, without CM",+++
same,IgG+ wells [% total],"PMA 5.331 ng/ml, without CM",++++
same,productivity IgG+ [μg/ml],"PMA 5.331 ng/ml, without CM",+++++
same,IgG+ wells [% total],"PMA 7.106 ng/ml, without CM",+++++
same,productivity IgG+ [μg/ml],"PMA 7.106 ng/ml, without CM",++
same,numbers of IgG positive wells,[1],comparable
same,productivity,[1],increased
